Experimental data: PubChem BioAssay (NCI)
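48-hour exposure; five concentrations; linearly interpolated endpoints. The concentration for 50% growth inhibition is given as GI50. TGI: total growth inhibition.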

Columns and labels:
Experiment in all cases: growth of human tumour cells (NCI), 48 h
[1] = system: SF-268 CNS
[2] = system: ACHN renal
[3] = system: KM12 colon
[4] = system: HT29 colon
[5] = system: OVCAR-4 ovarian
[6] = system: U251 CNS
[7] = system: NCI-H226 lung
[8] = system: SR leukemia
[9] = system: MDA-MB-231 breast
[10] = system: PC-3 prostate

Structure (SMILES)	TGI [1]	TGI [2]	TGI [3]	TGI [4]	TGI [5]	TGI [6]	TGI [7]	TGI [8]	GI50 [1]	GI50 [2]	GI50 [3]	GI50 [4]	GI50 [5]	GI50 [8]	GI50 [9]	TGI [9]	GI50 [6]	GI50 [7]	GI50 [10]	TGI [10]
C=C1C(=O)O[C@H](c2ccoc2)C[C@@H]1[C@@]1(C)CCCC2(C)C(=O)OCC21 (stereo partly specified)	> 100 µM	> 100 µM	> 100 µM	> 100 µM	> 100 µM	> 100 µM	> 100 µM													
CC(=O)OCC1OC(n2cccnc2=O)C(OC(C)=O)C1OC(C)=O (stereo unspecified)	> 100 µM	> 100 µM	> 100 µM	> 100 µM	> 100 µM	> 100 µM	> 100 µM	> 100 µM												
CCOC(=O)C1=C(C)NC(=O)NC1c1ccc(OC)cc1OC (stereo unspecified)	> 100 µM	> 100 µM	> 100 µM	> 100 µM		> 100 µM	> 100 µM	> 100 µM												
O=C(Nc1nc(-c2ccc(Cl)cc2)cs1)c1cc(O)c(O)c(O)c1	1400 µM	1140 µM	1460 µM	2250 µM	2490 µM	1200 µM	2570 µM	1060 µM	146 µM	113 µM	315 µM	572 µM	142 µM	96.3 µM	141 µM	3150 µM	156 µM	663 µM		
COC(=O)c1c[nH]c2cc(OC(C)C)c(OC(C)C)cc2c1=O	> 100 µM	> 100 µM	> 100 µM	> 100 µM		> 100 µM	> 100 µM	> 100 µM	> 100 µM	> 100 µM	> 100 µM	> 100 µM		> 100 µM	> 100 µM	> 100 µM	> 100 µM	> 100 µM	> 100 µM	> 100 µM
CC1OC(n2cc(C(F)(F)F)c(=O)[nH]c2=O)C=CC1=O (stereo unspecified)	> 100 µM	31.4 µM	38.1 µM	54.6 µM	26.8 µM		66.1 µM	33.3 µM												
COC(=O)C1=CC2C(=O)OC1C1C(=O)NC(=O)C21 (stereo unspecified)	> 100 µM	> 100 µM	> 100 µM	> 100 µM	> 100 µM	> 100 µM		> 100 µM												
CC(=O)[CH-]C(=O)c1ccccc1.CC(=O)[CH-]C(=O)c1ccccc1.Cl.[O-]c1ccnc2ccccc12.[O-]c1ccnc2ccccc12.[Ti+4]	> 100 µM	> 100 µM	> 100 µM	> 100 µM	> 100 µM	> 100 µM	> 100 µM		> 100 µM	> 100 µM	> 100 µM	> 100 µM	> 100 µM				> 100 µM	> 100 µM		
CC1(C)C(=O)OC(n2cc(F)c(=O)[nH]c2=O)C1=O (stereo unspecified)	> 100 µM	> 100 µM	> 100 µM	> 100 µM	> 100 µM	> 100 µM	> 100 µM													
Cc1cccc(NC(=O)C(=O)C(C2OC(=O)c3ccccc32)[N+](=O)[O-])c1C (stereo unspecified)	24.7 µM	22.9 µM	26.9 µM	35.1 µM	25.8 µM	12.6 µM	26.4 µM	> 100 µM												
O=C(/C=C/c1ccc(Cl)c(Cl)c1)c1ccccc1Cl	13.9 µM	28.6 µM	20.9 µM	12.8 µM	27.9 µM	10.3 µM	31.6 µM	36.7 µM												
COc1cc2c(cc1OC)C(C(CCCCCC(CCC(C)C)C1NCCc3cc(OC)c(OC)cc31)CCC(C)C)NCC2 (stereo unspecified)	2.79 µM	3.17 µM	1.26 µM	0.874 µM	2.92 µM	0.979 µM	3.6 µM		1.34 µM	1.68 µM	0.438 µM	0.328 µM	1.54 µM		0.791 µM	2.41 µM	0.285 µM	1.79 µM	1.58 µM	3.12 µM
CN(C)c1ccc(/C=C(\C#N)c2cc3ccccc3[nH]2)cc1	> 100 µM	> 100 µM	> 100 µM	15.9 µM	> 100 µM	18.6 µM		> 100 µM	2.52 µM	2.42 µM	0.495 µM	0.375 µM	3.75 µM	0.497 µM	1.63 µM	> 100 µM	0.913 µM		1.15 µM	31.6 µM
NCCCNc1nc2ccccc2c2c(=O)c3cc(F)ccc3sc12	3.12 µM	2.93 µM	3.36 µM	3.14 µM	3.4 µM	3.25 µM		4.09 µM	1.45 µM	1.58 µM	1.8 µM	1.54 µM	1.75 µM	1.48 µM	1.45 µM	2.9 µM	1.64 µM		1.45 µM	2.98 µM
c1ccc(C2=NOC3C4CCC(C4)C23)cc1 (stereo unspecified)	> 100 µM	> 100 µM	> 100 µM	> 100 µM	> 100 µM	> 100 µM	> 100 µM	> 100 µM												
CC(=O)OC1CCC2OOC1O2 (stereo unspecified)	> 100 µM	> 100 µM	> 100 µM	> 100 µM	> 100 µM	> 100 µM	> 100 µM	> 100 µM												
Cc1ccc(S(=O)(=O)OCOS(=O)(=O)c2ccc(C)cc2)cc1	> 100 µM	> 100 µM	> 100 µM			> 100 µM		> 100 µM												
O=C(Nc1ccncc1)C(=O)c1cn(S(=O)(=O)c2cccc(Cl)c2)c2ccccc12	> 100 µM	57.1 µM	> 100 µM	> 100 µM	> 100 µM	> 100 µM	> 100 µM		8.36 µM	7.58 µM	3.96 µM	3.62 µM	7.51 µM		10.6 µM	43.9 µM	5.78 µM	13.6 µM	11.8 µM	> 100 µM
COc1ccc(Oc2nc3cc(N)cc(N)c3nc2-c2ccccc2)cc1	> 100 µM	> 100 µM	> 100 µM	> 100 µM	24.6 µM	> 100 µM		> 100 µM	20.8 µM	36.4 µM	37.4 µM	39.9 µM	3.75 µM	18.5 µM	20.4 µM	64.5 µM	26.6 µM		15 µM	> 100 µM
CCOC(=O)C1=C(OC(OCC)C([Se]c2ccccc2)C(C)C)CCC1 (stereo unspecified)	20 µM	62 µM	> 100 µM	41.7 µM	32.9 µM	16.6 µM	37.4 µM	15.4 µM												
c1ccc(-c2[nH]ncc2-c2ccnc(-c3ccc(OCCN4CCOCC4)cc3)c2)nc1	> 25 µM	> 25 µM	> 25 µM	> 25 µM	> 25 µM	> 25 µM	> 25 µM		> 25 µM	> 25 µM	> 25 µM	> 25 µM	> 25 µM		> 25 µM	> 25 µM	> 25 µM	> 25 µM	> 25 µM	> 25 µM

Structure (SMILES)	TGI [1]	TGI [2]	TGI [3]	TGI [4]	TGI [5]	TGI [6]	TGI [7]	TGI [8]	GI50 [1]	GI50 [2]	GI50 [3]	GI50 [4]	GI50 [5]	GI50 [8]	GI50 [9]	TGI [9]	GI50 [6]	GI50 [7]	GI50 [10]	TGI [10]
N#C/C(=C\c1c(O)cc(O)cc1O)C(N)=O	> 100 µM	> 100 µM	> 100 µM	> 100 µM	> 100 µM	> 100 µM	> 100 µM													
CCN(CC)CCNC(=O)c1cccc2c1-c1ccccc1C2=O	> 100 µM	> 100 µM	> 100 µM	> 100 µM	> 100 µM	> 100 µM	> 100 µM		> 100 µM	> 100 µM	> 100 µM	> 100 µM	> 100 µM		> 100 µM	> 100 µM	> 100 µM	> 100 µM	> 100 µM	> 100 µM
O/N=C(\CC(O)(C(F)(F)F)C(F)(F)F)c1cccs1	> 10 µM	> 10 µM	> 10 µM	> 10 µM	> 10 µM	> 10 µM	> 10 µM									> 10 µM				> 10 µM
CCC12C=CCN(CCc3c([nH]c4ccccc34)/C=C\1)C2 (stereo unspecified)	> 100 µM	> 100 µM	> 100 µM	> 100 µM	> 100 µM	> 100 µM	> 100 µM	> 100 µM												
CN(C)NC(=O)/C(=C/c1ccc(Cl)cc1)NC(=O)c1ccccc1	> 100 µM	> 100 µM	> 100 µM	> 100 µM	> 100 µM	> 100 µM	> 100 µM	> 100 µM												
O=C(NC1CC1)c1c(O)[nH]c(=S)[nH]c1=O	> 100 µM	> 100 µM	> 100 µM	> 100 µM	> 100 µM	> 100 µM	> 100 µM	> 100 µM												
COC(=O)c1c(O)ccc(O)c1C(C(C)=O)C(C)=O	> 100 µM		> 100 µM	> 100 µM	> 100 µM	> 100 µM														
CCOC(=O)c1cc(=O)n(C)c(=O)n1C	> 100 µM	> 100 µM	> 100 µM	> 100 µM	> 100 µM	> 100 µM	> 100 µM													
Cc1ccccc1NC(=O)Cc1nc2ccccc2s1	33 µM	29.7 µM	31.3 µM	38.4 µM	32.5 µM	24.1 µM	34.9 µM	63 µM												
Nc1cccc2c1-c1c(cccc1[N+](=O)[O-])C2=O	> 100 µM		> 100 µM	> 100 µM	> 100 µM	> 100 µM	> 100 µM	> 100 µM												
Cn1[nH]cc2ccc3nc4ccccc4c(=O)c3c21	> 100 µM	98.6 µM	> 100 µM	> 100 µM	75.8 µM	30.7 µM	45.5 µM	> 100 µM												
CC1(C)C(N2CCOCC2)CS1(=O)=O (stereo unspecified)	> 10 µM	> 10 µM	> 10 µM	> 10 µM	> 10 µM	> 10 µM	> 10 µM									> 10 µM				> 10 µM
C/C=C/C(=O)Oc1cccc2cccnc12	14.5 µM	> 100 µM	42.4 µM	58 µM	22 µM	12.9 µM	68.6 µM	> 100 µM												
COc1cccc(Nc2ncnc3cc(NC(=O)CCl)ccc23)c1	3.24 µM	2.34 µM	2.9 µM	1.85 µM		1.12 µM	4.55 µM		1.42 µM	1.08 µM	1.36 µM	0.499 µM			1.27 µM	2.6 µM	0.33 µM	1.91 µM	1.12 µM	2.46 µM
CN(C)NC1=C([N+](=O)[O-])C=NN(c2ccccc2)C1	3.51 µM	3.18 µM	11.9 µM	3.66 µM	3.22 µM	3.17 µM	15.1 µM	2.51 µM												
COc1cc(-c2nn(-c3ccc(NC(=O)Nc4cc(C(F)(F)F)cc(C(F)(F)F)c4)cc3)cc2-c2ccncc2)ccc1Cl	7.3 µM	7.86 µM	3.09 µM	12.3 µM	9.43 µM	4.52 µM	4.84 µM		2.47 µM	1.94 µM	1.34 µM	3.31 µM	2.78 µM		1.64 µM	3.34 µM	1.8 µM	1.92 µM	1.2 µM	10.8 µM
O=C(O)c1ccc2c(c1)C(=O)N(c1ccc(S(=O)(=O)c3ccc(N4C(=O)c5ccc(C(=O)O)cc5C4=O)cc3)cc1)C2=O	> 100 µM	> 100 µM	> 100 µM	> 100 µM	> 100 µM	> 100 µM	> 100 µM	> 100 µM												
Brc1ccccc2cc(-c3ccccc3)nc1-2	28.7 µM	20.6 µM	32.8 µM	> 90.3 µM	19.8 µM	37.5 µM	37.7 µM									> 42.3 µM				> 64.8 µM
O=c1nc2sc3ccccc3c(=O)n2[nH]1	> 100 µM	> 100 µM	> 100 µM	> 100 µM	> 100 µM	> 100 µM	> 100 µM	> 100 µM												
COc1ccc(CN2C(=O)[C@@H]3Cc4c(OC)c(C)c(OC)c(OC)c4[C@H](/C2=C\c2cc(OC)c(OC)c(C)c2OC)N3C(=O)OC(C)C)cc1	> 100 µM	> 100 µM	> 100 µM	> 100 µM	> 100 µM	> 100 µM	34.1 µM	> 100 µM												
